According to the supplement of paper PMC10883282:

Key:
Experiment in all cases: relative viability vs DMSO control (72 h) (fraction); higher = more viable cells
RD-ES = test system: RD-ES
In short: (§1)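 Sarcoma cell lines were grown in 384-well plates seeded toward 80–90% confluence and exposed 24 h later to serially diluted compound. After 72 h at 37 °C and 5% CO2, with 0.1% DMSO vehicle and a 5 µM positive control on the plates, ATPLite was read. Relative viability, given as percent growth averaged over up to triplicate wells, was rescaled so that 1 is full and 0 is none.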

SYO-1 = test system: SYO-1
In short: as §1

SK-ES-1 = test system: SK-ES-1
In short: as §1

G401 = test system: G401
In short: as §1

VA-ES-BJ = test system: VA-ES-BJ
In short: as §1

KHOS-240S = test system: KHOS-240S
In short: as §1

HT1080 = test system: HT1080
In short: as §1

RD = test system: RD
In short: as §1

SW982 = test system: SW982
In short: as §1

SW1353 = test system: SW1353
In short: as §1

SK-LMS-1 = test system: SK-LMS-1
In short: as §1

MES-SA = test system: MES-SA
In short: as §1

COc1cc2ncnc(Nc3ccc(F)c(Cl)c3)c2cc1NC(=O)/C=C/CN1CCCCC1 [Dacomitinib]
Conditions	relative viability
G401, 0.00017 µM	1.02
G401, 0.00051 µM	1.01
G401, 0.00152 µM	1.03
G401, 0.00457 µM	1.03
G401, 0.01372 µM	1.01
G401, 0.04115 µM	0.999
G401, 0.1235 µM	1.02
G401, 0.3704 µM	0.997
G401, 1.111 µM	0.849
G401, 3.333 µM	0.548
G401, 10 µM	0.00623
HT1080, 0.00017 µM	1.12
HT1080, 0.00051 µM	1.11
HT1080, 0.00152 µM	1.11
HT1080, 0.00457 µM	1.11
HT1080, 0.01372 µM	1.08
HT1080, 0.04115 µM	1.12
HT1080, 0.1235 µM	1.12
HT1080, 0.3704 µM	1.13
HT1080, 1.111 µM	1.15
HT1080, 3.333 µM	0.769
HT1080, 10 µM	0.0364
KHOS-240S, 0.00017 µM	1.08
KHOS-240S, 0.00051 µM	1.09
KHOS-240S, 0.00152 µM	1.09
KHOS-240S, 0.00457 µM	1.06
KHOS-240S, 0.01372 µM	1.06
KHOS-240S, 0.04115 µM	1.06
KHOS-240S, 0.1235 µM	1.08
KHOS-240S, 0.3704 µM	1.01
KHOS-240S, 1.111 µM	0.936
KHOS-240S, 3.333 µM	0.579
KHOS-240S, 10 µM	0.0145
MES-SA, 0.00017 µM	0.967
MES-SA, 0.00051 µM	0.942
MES-SA, 0.00152 µM	0.949
MES-SA, 0.00457 µM	0.932
MES-SA, 0.01372 µM	0.926
MES-SA, 0.04115 µM	0.927
MES-SA, 0.1235 µM	0.893
MES-SA, 0.3704 µM	0.879
MES-SA, 1.111 µM	0.731
MES-SA, 3.333 µM	0.342
MES-SA, 10 µM	0.00577
RD, 0.00017 µM	1.103
RD, 0.00051 µM	1.09
RD, 0.00152 µM	1.12
RD, 0.00457 µM	1.141
RD, 0.01372 µM	1.13
RD, 0.04115 µM	1.12
RD, 0.1235 µM	1.12
RD, 0.3704 µM	1.08
RD, 1.111 µM	0.976
RD, 3.333 µM	0.347
RD, 10 µM	0.00617
RD-ES, 0.00017 µM	1.02
RD-ES, 0.00051 µM	1.01
RD-ES, 0.00152 µM	1.01
RD-ES, 0.00457 µM	1.02
RD-ES, 0.01372 µM	1.02
RD-ES, 0.04115 µM	1.01
RD-ES, 0.1235 µM	0.992
RD-ES, 0.3704 µM	0.9359
RD-ES, 1.111 µM	0.832
RD-ES, 3.333 µM	0.474
RD-ES, 10 µM	0.0093
SK-ES-1, 0.00017 µM	1.04
SK-ES-1, 0.00051 µM	1.1
SK-ES-1, 0.00152 µM	1.04
SK-ES-1, 0.00457 µM	1.07
SK-ES-1, 0.01372 µM	1.07
SK-ES-1, 0.04115 µM	1.04
SK-ES-1, 0.1235 µM	1.02
SK-ES-1, 0.3704 µM	1.01
SK-ES-1, 1.111 µM	0.662
SK-ES-1, 3.333 µM	0.184
SK-ES-1, 10 µM	0.00867
SK-LMS-1, 0.00017 µM	1.11
SK-LMS-1, 0.00051 µM	1.11
SK-LMS-1, 0.00152 µM	1.11
SK-LMS-1, 0.00457 µM	1.13
SK-LMS-1, 0.01372 µM	1.09
SK-LMS-1, 0.04115 µM	1.08
SK-LMS-1, 0.1235 µM	1.04
SK-LMS-1, 0.3704 µM	1.03
SK-LMS-1, 1.111 µM	0.916
SK-LMS-1, 3.333 µM	0.701
SK-LMS-1, 10 µM	0.013
SW982, 0.00017 µM	1.05
SW982, 0.00051 µM	1.07
SW982, 0.00152 µM	1.08
SW982, 0.00457 µM	1.09
SW982, 0.01372 µM	1.08
SW982, 0.04115 µM	1.08
SW982, 0.1235 µM	1.04
SW982, 0.3704 µM	0.986
SW982, 1.111 µM	0.606
SW982, 3.333 µM	0.21
SW982, 10 µM	0.0159
SW1353, 0.00017 µM	1.06
SW1353, 0.00051 µM	1.05
SW1353, 0.00152 µM	1.02
SW1353, 0.00457 µM	0.9671
SW1353, 0.01372 µM	0.927
SW1353, 0.04115 µM	0.884
SW1353, 0.1235 µM	0.8331
SW1353, 0.3704 µM	0.764
SW1353, 1.111 µM	0.665
SW1353, 3.333 µM	0.401
SW1353, 10 µM	0.0104
SYO-1, 0.00017 µM	1.02
SYO-1, 0.00051 µM	1.02
SYO-1, 0.00152 µM	1.01
SYO-1, 0.00457 µM	1.02
SYO-1, 0.01372 µM	1
SYO-1, 0.04115 µM	1.01
SYO-1, 0.1235 µM	0.986
SYO-1, 0.3704 µM	0.888
SYO-1, 1.111 µM	0.824
SYO-1, 3.333 µM	0.287
SYO-1, 10 µM	-0.0103
VA-ES-BJ, 0.00017 µM	1.064
VA-ES-BJ, 0.00051 µM	1.08
VA-ES-BJ, 0.00152 µM	1.09
VA-ES-BJ, 0.00457 µM	1.09
VA-ES-BJ, 0.01372 µM	1.03
VA-ES-BJ, 0.04115 µM	0.979
VA-ES-BJ, 0.1235 µM	1.02
VA-ES-BJ, 0.3704 µM	0.994
VA-ES-BJ, 1.111 µM	0.914
VA-ES-BJ, 3.333 µM	0.535
VA-ES-BJ, 10 µM	-0.0076
